Values joined by “and” are separate entries in the source; they are usually repeats but may differ in a detail not shown here. Equal values may be shown once. Read-outs that look alike come from different tables or passages of the source. Where a SMILES comes first, the peptide text is derived from it. The star is where a group is joined. Myristoyl = CCCCCCCCCCCCCC(=O)*
Assays:
[1] = test system: SARS-CoV-2 (QLD02) in Caco2 cells; conditions: cited from earlier work
[2] = test system: perforin-positive and CD3+ cells; type: in vivo, golden Syrian hamsters; conditions: hamster lungs 2 dpi; for %CD3+ / %Perforin+: individual animals, n=5
[3] = test system: SARS-CoV-2 spike protein; design: species or system golden Syrian hamsters; conditions: hamster, in vivo
[4] = test system: ACE2, ACE2me, SARS-CoV-2 spike protein; design: species or system golden Syrian hamsters; conditions: hamster, in vivo
[5] = test system: SARS-CoV-2-induced lung pathology; design: species or system golden Syrian hamsters; conditions: hamster, in vivo
[6] = test system: NFACT1, C-Rel, ACE2, pPKC-zeta, Nurr1/Nur77, HDAC1 or NFKB p50; type: cell-based; conditions: Fig. 1d
[7] = test system: SARS-CoV-2; design: species or system golden Syrian hamsters; conditions: hamster, in vivo
[8] = target: T1, ACE2-IMPα interactions in H1299 cells (Homo sapiens, UniProt P52294); test: Duolink proximity ligation assay; type: cell-based; conditions: 0.0015, 0.0977 and 6.25 µM
T1 construct: endogenous in cells; host or cells: NCI-H1299
T1 sequence (P52294 whole entry): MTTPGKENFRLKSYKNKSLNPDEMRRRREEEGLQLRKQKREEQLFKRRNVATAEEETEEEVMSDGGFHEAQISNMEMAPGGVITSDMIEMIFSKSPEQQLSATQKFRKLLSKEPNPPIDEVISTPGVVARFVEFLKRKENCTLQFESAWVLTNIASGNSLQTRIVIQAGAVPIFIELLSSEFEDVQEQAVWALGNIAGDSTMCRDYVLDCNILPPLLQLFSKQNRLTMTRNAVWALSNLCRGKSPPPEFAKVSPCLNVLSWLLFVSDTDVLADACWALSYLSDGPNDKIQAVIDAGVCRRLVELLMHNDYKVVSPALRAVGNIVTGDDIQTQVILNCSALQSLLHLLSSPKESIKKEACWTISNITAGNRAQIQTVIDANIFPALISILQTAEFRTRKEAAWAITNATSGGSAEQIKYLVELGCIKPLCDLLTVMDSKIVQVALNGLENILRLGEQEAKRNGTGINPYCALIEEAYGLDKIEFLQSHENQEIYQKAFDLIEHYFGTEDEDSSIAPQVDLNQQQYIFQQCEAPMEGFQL
Protocol: The Duolink proximity ligation assay was used with PLA probe anti-mouse PLUS (DUO92001), PLA probe anti-rabbit MINUS (DUO92005), and the Duolink In Situ Detection Reagent Red kit (DUO92008) (Sigma-Aldrich). Cells were fixed, permeabilized, and incubated with primary ACE2 antibodies targeting the NLS region and IMPα1 (staining conditions are shown in Supplementary Table 4). Cells were processed according to the manufacturer’s instructions. Finally, coverslips were mounted onto slides and examined as above. Image segmentation and analysis were carried out using QuPath open software (version 0.4.3) for bioimage analysis[64] with a custom script. An analysis workflow was developed with the following steps: (i) threshold-based cell detection using DAPI staining to create a mask for detected nuclei along with a 5 µm cell expansion setting to denote the cell cytoplasm boundary; and (ii) use of the QuPath subcellular detection module to detect the Duolink-positive spots in the Alexa Fluor 555 channel in each cell. The two functions were wrapped in a script to allow for batch analysis of images and data export. Total dots were counted per cell and then averaged for each cell and experimental group; approximately 100 cells were counted per group.

[9] = test system: H3K27ac; design: species or system golden Syrian hamsters; conditions: hamster, in vivo
[10] = hamsters, escalating daily i.p. doses up to 100 mg/kg
[11] = In vitro monkey plasma assay; type: in vitro ADME, cynomolgus monkey; conditions: for Concentration: single replicates
Protocol: Briefly, pooled frozen plasma was thawed at 37 °C prior to experiments. Plasma was centrifuged at 3720 x g for 5 min and any clots were removed. All blanks and working solutions were aliquoted on an Apricot automation workstation (2 μL/well of working solution (100 μM) with 98 μL plasma for NACE2i peptide (CP300638) and control compounds somatostatin acetate and procaine hydrochloride). All reaction plates containing mixtures of NACE2i, somatostatin acetate, and procaine hydrochloride and plasma were incubated at 37 °C in a water bath for 0, 15, 30, 60, 120, 240, and 360 min. Incubation was stopped with 4% H3PO4 and stop solution (200 ng/mL tolbutamide and 200 ng/mL labetalol in MeOH) to precipitate protein. Each plate was sealed and shaken for 20 min and then centrifuged at 3720 x g at 4 °C for 20 min. After centrifugation, the Apricot workstation was used to transfer 150 μL supernatant to each bioanalysis plate, which was then sealed and shaken for 10 min prior to LC-MS/MS analysis as per the manufacturer’s guidelines. LC: Shimadzu LC 30-AD, MS: QTRAP 6500 + , Autosampler: CTC PAL.

[12] = test system: H3K27ac in CD14+ PBMCs; test: H3K27ac nuclear fluorescence intensity and clock scan in CD14+ PBMCs; type: cell-based, human; conditions: CD14+ PBMCs of PB and PI patients

SMILES: CCCCCCCCCCCCCC(=O)N[C@H](C(=O)NCC(=O)N[C@H](C(=O)N[C@@H](CCCNC(=N)N)C(=O)N[C@@H](CC(=O)O)C(=O)N[C@@H](CCCNC(=N)N)C(=O)N[C@@H](CCCCN)C(=O)N[C@@H](CCCCN)C(=O)N[C@@H](CCCCN)C(=O)N[C@@H](CC(N)=O)C(=O)N[C@@H](CCCCN)C(=O)N[C@@H](C)C(=O)N[C@@H](CCCNC(=N)N)C(=O)N[C@@H](CO)C(=O)O)[C@@H](C)CC)[C@@H](C)O [NACE2i] (Myristoyl-TGIRDRKKKNKARS-OH)
- SARS-CoV-2 replication in Caco2 cells [1]: significantly inhibit
- %CD3+ ([2]; i.p. NACE2i): 7.228% and 6.247% and 7.351% and 8.086%
- %Perforin+ ([2]; i.p. NACE2i): 14.1151% and 9.254% and 20.5795% and 12.5121%
- %CD3+ ([2]; i.v. NACE2i): 6.775% and 4.046% and 7.435% and 7.728% and 7.891%
- %Perforin+ ([2]; i.v. NACE2i): 8.914% and 7.676% and 12.1345% and 7.891% and 7.955%
- number of CD3+ cells ([2]; i.v. or i.p.): significantly increased
- proportion of perforin-positive cells ([2]; i.v. or i.p.): significantly increased
- SARS-CoV-2 spike protein signal intensity [3]: significantly reduced
- population of SARS-CoV-2 spike protein-positive cells in bronchiolar epithelium [3]: significantly reduced
- ACE2me in the bronchioles [4]: significantly upregulated
- Fn/c of ACE2 [4]: significantly reduced
- SARS-CoV-2 spike protein expression in bronchioles [4]: significantly reduced or eliminated
- global ACE2 and proportion of ACE2+ cells [4]: no significant change
- nuclear ACE2 expression in bronchiolar epithelial cells [4]: significantly reduced
- proportion of cells co-expressing ACE2 and ACE2me [4]: increased
- lung histopathological changes [5]: minimal alveolar, bronchiolar, or vascular changes
- mean cumulative histopathological scores versus vehicle [5]: substantially lower
- Bronchitis/bronchiolitis ([5]; ip): 0
- Interstital inflammation ([5]; ip): 0
- Vasculitis ([5]; ip): 0
- selectivity for nuclear ACE2 versus other nuclear proteins of the importin pathway (NFI) [6]: specifically targets nuclear ACE2 and not other nuclear proteins
- lung infectious titers (TCID50) [7]: significantly reduced
- ACE2-IMPα interactions (Duolink) [8]: significantly inhibited ACE2-IMPα interactions in a dose-dependent manner
- H3K27ac along with ACE2me in lung tissues [9]: significant H3K27ac induction
- body temperature [10]: minimal changes in body temperature
- body weight [10]: without a decrease in body weight
- discomfort [10]: no observable discomfort
- Concentration ([11]; cynomolgus monkey plasma, time 0 min): 2270 nM and 2330 nM
- Concentration ([11]; cynomolgus monkey plasma, time 15 min): 1960 nM and 1620 nM
- Concentration ([11]; cynomolgus monkey plasma, time 30 min): 2060 nM and 2030 nM
- Concentration ([11]; cynomolgus monkey plasma, time 60 min): 1840 nM and 1540 nM
- Concentration ([11]; cynomolgus monkey plasma, time 120 min): 1740 nM and 1890 nM
- Concentration ([11]; cynomolgus monkey plasma, time 240 min): 1980 nM and 1920 nM
- % Remaining ([11]; cynomolgus monkey plasma, time 360 min, n=2): 76.7741%
- Concentration ([11]; cynomolgus monkey plasma, time 360 min): 1740 nM and 1850 nM
- remaining at 0.25 h, 2 µM ([11]; monkey, plasma (pooled, frozen), cynomolgus monkey plasma, time 15 min, n=2): 86.2%
- remaining at 0.5 h, 2 µM ([11]; monkey, plasma (pooled, frozen), cynomolgus monkey plasma, time 30 min, n=2): 90.6%
- remaining at 1 h, 2 µM ([11]; monkey, plasma (pooled, frozen), cynomolgus monkey plasma, time 60 min, n=2): 81.1%
- remaining at 2 h, 2 µM ([11]; monkey, plasma (pooled, frozen), cynomolgus monkey plasma, time 120 min, n=2): 76.6%
- remaining at 4 h, 2 µM ([11]; monkey, plasma (pooled, frozen), cynomolgus monkey plasma, time 240 min, n=2): 87.4%
- half-life at 2 µM ([11]; pooled male cynomolgus monkey plasma, 2 µL of 100 µM working solution + 98 µL plasma, 37 °C, 0-360 min, LC-MS/MS, read-out: T1/2 in plasma): 14.5 h
- % remaining in plasma after 360 min incubation ([11]; pooled male cynomolgus monkey plasma, 2 µL of 100 µM working solution + 98 µL plasma, 37 °C, 360 min, LC-MS/MS): 78%
- H3K7ac mark [12]: successfully induced

From paper PMC10300102, “In vivo inhibition of nuclear ACE2 translocation protects against SARS-CoV-2 replication and lung damage through epigenetic imprinting” (Nature Communications, 2023)
